Test: Anti-oxidative potential (AP) in vitro, test radical DPPH, ESR spectroscopy
Assay type: biochemical
Settings: 1% ferulic acid
Procedure: The anti-oxidative potential (AP) of all described formulations was determined in vitro. In this method the formulations were incubated with a test radical (DPPH) and afterwards the reduction of these radicals over the time was measured by ESR (electron spin resonance spectroscopy). AP=amount of free radicals/mg of tested substance*minute.

Which “anti-oxidative potential (AP)” value does the source give for `COc1cc(/C=C/C(=O)O)ccc1O` [1% ferulic acid (EtOH/water), ferulic acid] here?
The value was “AP = 723 amount of free radicals/mg of tested substance*minute”.
